Results taken from US6406859B1 (Synaptic Pharmaceutical Corporation, priority 1992, dated 2002).
Where two headings read alike, the source gives them in different places.

Tests used:
5-HT1F receptor [1] = target: T1, 5-HT1F receptor (Homo sapiens, UniProt P30939); test: [3H]5-HT displacement binding to clonal 5-HT1F cell membranes (transfected Ltk- cells); design: The entire coding region of clone hl16a was cloned into the eukaryotic expression vector pcEXV-3; expressed in transfected cells; conditions: for affinity for 5-HT1F receptor in words: displacement of [3H]5-HT specific binding
T1 sequence (P30939 1-366): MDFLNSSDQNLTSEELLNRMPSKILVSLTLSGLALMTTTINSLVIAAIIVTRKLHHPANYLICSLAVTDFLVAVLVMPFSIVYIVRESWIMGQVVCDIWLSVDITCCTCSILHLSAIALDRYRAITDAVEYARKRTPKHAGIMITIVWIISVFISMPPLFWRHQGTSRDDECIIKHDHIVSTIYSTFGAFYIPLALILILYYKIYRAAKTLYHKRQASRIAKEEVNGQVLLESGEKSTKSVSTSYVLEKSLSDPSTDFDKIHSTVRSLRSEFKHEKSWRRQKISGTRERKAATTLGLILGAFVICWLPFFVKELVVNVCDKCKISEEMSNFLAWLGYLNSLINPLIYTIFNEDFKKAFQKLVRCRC
Experimental: Stable cell lines were obtained by cotransfection with the plasmid pcEXV-3 (containing the 5-HT1F receptor gene) and the plasmid pGCcos3neo (containing the aminoglycoside transferase gene) into Ltk^− cells or NIH3T3 cells using calcium phosphate (reagents obtained from Specialty Media, Lavellette, N.J.). The cells were grown in a controlled environment (37° C. 5% CO2) an monolayers in Dulbecco's modified Eagle medium (Gibco, Grand Island, N.Y.) containing 25 mM glucose and supplemented with 10% bovine calf serum, 100 U/ml penicillin G and 100 μg/ml streptomycin sulfate.
(§1) Membrane Preparation: Membranes were prepared from transfected Ltk^− cells which were grown to 100% confluency. The cells were washed twice with phosphate-buffered saline, scraped from the culture dishes into 5 ml of ice-cold phosphate-buffered saline, and centrifuged at 200×g for 5 min at 4°. The pellet was resuspended in 2.5 ml of ice-cold Tris buffer (20 mM Tris-HCl, pH 7.4 at 23°, 5 mM EDTA) and homogenized by a Wheaton tissue grinder. The lysate was subsequently centrifuged at 200×g for 5 min at 4° to pellet large fragments which were discarded. The supernatant was collected and centrifuged at 40,000×g for 20 min at 4°. The pellet resulting from this centrifugation was washed once in ice-cold Tris wash buffer and finally resuspended in a final buffer containing 50 mM Tris-HCl and 0.5 mM EDTA, pH 7.4 at 23°. Membrane preparations were kept on ice and utilized within two hours for the radioligand binding assays.
The binding profile of drugs in competition experiments was accomplished using 10-12 concentrations of compound. Incubation times were 30 min for both saturation and displacement studies based upon initial investigations which determined equilibrium binding conditions. […] Binding was initiated by the addition of 50 μl membrane homogenates (10-20 μg). […] All experiments were performed in triplicate.

5-HT1F receptor [2] = target: T1, 5-HT1F receptor
Experimental: (§2) The antagonist Kb was estimated by method of Furchgott (32): Kb=(Dose of antagonist)/((E50 in the presence of antagonist/control E50) −1).
(§3) Transfected NIH3T3 cells (estimated Bmax from one point competition studies=486 fmol/mg of protein) were incubated in DMEM, 5 mM theophylline, 10 mM Hepes (4-[2-Hydroxyethyl]-1-piperazineethanesulfonic acid), 10 μM pargyline, for 20 minutes at 37° C., CO2. Drug dose-effect curves were then conducted by adding 6 different final concentrations of drug, followed immediately by the addition of forskolin (10 μM). Subsequently, the cells were incubated for an additional 10 minutes at 37° C., 5% CO2. The media was aspirated and the reaction terminated by the addition of 100 mM HCl. The plates were stored at 4° C. for 15 minutes and centrifuged for 5 minutes (500×g at 4° C.) to pellet cellular debris. Aliquots of the supernatant fraction were then stored at −20° C. prior to assessment of cAMP formation by radioimmunoassay (cAMP Radioimmunoassay kit, Advanced Magnetics, Cambridge, Mass.).

5-HT1E receptor = 5-HT1E receptor (Homo sapiens, UniProt P28566); conditions: U.S. Ser. No. 803,626; cited from earlier work
5-HT1F receptor [3] = target: T1, 5-HT1F receptor; test: Coupling to PI turnover; type: cell-based; design: The entire coding region of clone hl16a was cloned into the eukaryotic expression vector pcEXV-3; expressed in transfected cells; conditions: dose of 10 μM
human 5-HT1F receptor = test: Inhibition of [3H]5-HT specific binding by Gpp(NH)p (G-protein coupling); conditions: mean ± S.E.M., n=3
Experimental: as §1
The binding profile of drugs in competition experiments was accomplished using 10-12 concentrations of compound. Incubation times were 30 min for both saturation and displacement studies based upon initial investigations which determined equilibrium binding conditions. […] Binding was initiated by the addition of 50 μl membrane homogenates (10-20 μg). […] IC50 values were converted to K1 values using the Cheng-Prusoff equation (1973). All experiments were performed in triplicate.

dog saphenous vein = conditions: cited from earlier work
5-HT1F receptor [4] = target: T1, 5-HT1F receptor; test: cell-based
Experimental: as §2, §3

[5] = read-out: Ki (nM) for the inhibition of [3H]5-HT specific binding, 4.5-5.5 nM [3H]5-HT, 10-12 drug concentrations, Cheng-Prusoff from IC50, mean ± S.E.M. of 2-4 determinations
[6] = read-out: Ki (nM) for the inhibition of [3H]5-HT specific binding

5-HT1E receptor, sequence (P28566 whole entry): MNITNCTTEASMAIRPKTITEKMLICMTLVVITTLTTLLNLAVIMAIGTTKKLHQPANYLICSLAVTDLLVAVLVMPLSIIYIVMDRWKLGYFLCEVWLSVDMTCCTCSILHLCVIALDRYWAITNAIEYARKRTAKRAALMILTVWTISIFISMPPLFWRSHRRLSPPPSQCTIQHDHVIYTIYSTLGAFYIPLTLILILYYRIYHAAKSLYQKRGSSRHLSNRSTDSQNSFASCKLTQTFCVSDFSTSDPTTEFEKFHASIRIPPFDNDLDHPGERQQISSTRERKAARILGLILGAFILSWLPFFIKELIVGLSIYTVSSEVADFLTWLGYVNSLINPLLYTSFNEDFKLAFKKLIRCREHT

Compound | Ki (5-HT1F receptor [1]) | affinity for 5-HT1F receptor in words (5-HT1F receptor [1]) | also measured
c1ccc2c(N3CCNCC3)cccc2c1 [1-Napthylpiperazine] | – | – | Ki (5-HT1F receptor [1]; unit inferred, read-out: K1): 54 nM; EC50 (5-HT1F receptor [2]; read-out: EC50 for decrease in forskolin-stimulated cAMP production): 4.5 ± 0.2 nM
Cc1[nH]c2ccc(O)cc2c1CCN [2-Methyl-5-HT] | – | – | Ki (5-HT1F receptor [1]; [5]): 413 ± 5.6 nM
NCCc1c[nH]c2ccc(OCc3ccccc3)cc12 [5-Benzoxytryptamine] | 1490 nM | – | –
NCCc1c[nH]c2ccc(C(N)=O)cc12 [5-CT, 5-carboxyamidotryptamine] | – | low affinity | affinity for 5-HT1F receptor in words (5-HT1F receptor [1]; listed as 5-carboxyamidotryptamine): significantly decreases the affinity; Ki (5-HT1F receptor [1]; [6]): 717 ± 71 nM; affinity for 5-HT1E receptor in words (5-HT1E receptor): low affinity
NCCc1c[nH]c2ccc(F)cc12 [5-Fluorotryptamine] | 1810 nM | – | –
NCCc1c[nH]c2ccc(O)cc12 [5-HT, 5-hydroxytryptamine] | – | highest affinity | maximum inhibition of cAMP production (5-HT1F receptor [2]; forskolin 10 μM): 67±5.4%; coupling to PI turnover (5-HT1F receptor [3]): no evidence for coupling of this receptor to PI turnover was detected
COc1ccc2[nH]cc(CCN)c2c1 [5-MT, 5-methoxytryptamine] | 1120 nM | significantly decreases the affinity | –
COc1ccc2[nH]cc(CCN(C)C)c2c1 [5-Methoxy-N,N-DMT, 5-methoxy-N,N-dimethyltryptamine] | 37.5 ± 1.5 nM | affinity much higher than the other 5-substituted tryptamine derivatives | –
CCCN(CCC)C1CCc2cccc(O)c2C1 (stereo not shown) [8-OH-DPAT] | – | very poor affinity | Ki (5-HT1F receptor [1]; [6]): 1770 nM
COc1cc(CC(C)N)c(OC)cc1I (stereo not shown) [DOI] | – | very poor affinity | Ki (5-HT1F receptor [1]; [6]): 1740 nM
CCCN(CCC)CCc1c[nH]c2ccc(C(N)=O)cc12 [DP-5-CT] | – | – | Ki (5-HT1F receptor [1]; [6]): 1610 nM
CN1C[C@H](C(=O)N[C@]2(C)O[C@@]3(O)[C@@H]4CCCN4C(=O)[C@H](Cc4ccccc4)N3C2=O)C[C@@H]2c3cccc4[nH]cc(c34)C[C@H]21 [Dihydroergotamine] | 276 ± 49 nM | – | –
C[C@@H](CO)NC(=O)[C@@H]1C=C2c3cccc4[nH]cc(c34)C[C@H]2N(C)C1 [Ergonovine] | 31 ± 1.5 nM | – | –
CN1C[C@H](C(=O)N[C@]2(C)O[C@@]3(O)[C@@H]4CCCN4C(=O)[C@H](Cc4ccccc4)N3C2=O)C=C2c3cccc4[nH]cc(c34)C[C@H]21 [Ergotamine] | – | – | Ki (5-HT1F receptor [1]; [5]): 171 ± 28 nM
Nc1nc2c(ncn2[C@@H]2O[C@H](COP(=O)(O)OP(=O)(O)NP(=O)(O)O)[C@@H](O)[C@H]2O)c(=O)[nH]1 [Gpp(NH)p] | – | – | Imax of inhibition of [3H]5-HT specific binding (human 5-HT1F receptor): 55.6±3.2%
COc1ccc2c3c([nH]c2c1)C(C)=NCC3 [Harmaline] | > 10000 nM | – | –
O=C(c1ccc(F)cc1)C1CCN(CCn2c(=O)[nH]c3ccccc3c2=O)CC1 [Ketanserin] | > 10000 nM | very poor affinity | –
COc1ccc2[nH]cc(CCNC(C)=O)c2c1 [Melatonin] | > 10000 nM | – | –
CN1C[C@@H](NS(=O)(=O)N(C)C)C[C@@H]2c3cccc4c3c(cn4C)C[C@H]21 [Mesulergine] | > 10000 nM | – | –

Compound | Ki (5-HT1F receptor [1]) | affinity for 5-HT1F receptor in words (5-HT1F receptor [1]) | also measured
CN1C[C@H](CNC(=O)OCc2ccccc2)C[C@@H]2c3cccc4c3c(cn4C)C[C@H]21 [Metergoline] | – | – | block of the effects of sumatriptan (dog saphenous vein): does not block the effects of sumatriptan; Ki (5-HT1F receptor [1]; [5]): 341 ± 71 nM
CSc1ccc2c(c1)C(N1CCN(C)CC1)Cc1ccccc1S2 (stereo not shown) [Methiothepin] | – | – | Ki (5-HT1F receptor [1]; [5]): 652 ± 41 nM; blockade of functional 5-HT response (5-HT1F receptor [2]; 5-HT 1 μM, antagonist 10 μM): completely blocked; nature of antagonism (5-HT1F receptor [2]; FIG. 3, 5-HT curves with and without antagonist): surmountable; direct effect of compound on cAMP response (5-HT1F receptor [2]; compound alone): No direct effect; Kd (5-HT1F receptor [2]; read-out: apparent KD from dose shift of 5-HT concentration-effect curve, antagonist, method of Furchgott (FIG. 3)): 438 ± 14 nM
CC[C@@H](CO)NC(=O)[C@@H]1C=C2c3cccc4[nH]cc(c34)C[C@H]2N(C)C1 [Methylergonovine] | – | high affinity | Ki (5-HT1F receptor [1]; [5]): 31 ± 11 nM
CC[C@@H](CO)NC(=O)[C@@H]1C=C2c3cccc4c3c(cn4C)C[C@H]2N(C)C1 [Methysergide] | – | high affinity | Ki (5-HT1F receptor [1]; [6]): 34 ± 4.9 nM
COc1ccccc1N1CCN(CCCCN2C(=O)c3ccccc3C2=O)CC1 [NAN 190] | – | – | Ki (5-HT1F receptor [1]; [5]): 203 ± 13 nM
CC(C)NCC(O)COc1cccc2[nH]ccc12 (stereo not shown) [Pindolol] | > 10000 nM | very poor affinity | –
CC(C)NCC(O)COc1cccc2ccccc12 (stereo not shown) [Propanolol] | 8710 nM | – | –
c1ccc2nc(N3CCNCC3)ccc2c1 [Quipanzine] | – | – | Ki (5-HT1F receptor [1]; [6]): 4670 nM
Cc1nc2sccn2c(=O)c1CCN1CCC(=C(c2ccc(F)cc2)c2ccc(F)cc2)CC1 [Ritanserin] | 3520 nM | – | –
CN1CCc2cc(Cl)c(O)cc2[C@@H](c2ccccc2)C1 [SCH 23390] | 1490 nM | – | –
O=C(CCCN1CCC2(CC1)C(=O)NCN2c1ccccc1)c1ccc(F)cc1 [Spiperone] | > 10000 nM | very poor affinity | –
FC(F)(F)c1cccc(N2CCNCC2)c1 [TFMPP] | – | – | Ki (5-HT1F receptor [1]; [5]): 1000 nM
NCCc1c[nH]c2ccccc12 [Tryptamine] | – | significantly decreases the affinity | Ki (5-HT1F receptor [1]; [6]): 2410 nM
COC(=O)[C@@H]1[C@H]2C[C@H]3c4[nH]c5ccccc5c4CCN3C[C@@H]2CC[C@@H]1O [Yohimbine] | – | fair affinity | Ki (5-HT1F receptor [1]; [6]): 92 ± 11 nM
COc1cc(N)c(Cl)cc1C(=O)NC1CN2CCC1CC2 (stereo not shown) [Zacopride] | > 10000 nM | very poor affinity | –
CN1C[C@H](CO)C=C2c3cccc4[nH]cc(c34)C[C@H]21 [lysergol] | – | – | EC50 (5-HT1F receptor [4]): 8.8 ± 4.3 nM
Clc1cccc(N2CCNCC2)c1 [mCPP] | – | – | Ki (5-HT1F receptor [1]; [6]): 2020 nM
COC(=O)[C@H]1[C@H]2C[C@H]3c4[nH]c5ccccc5c4CCN3C[C@H]2CC[C@@H]1O [rauwolscine] | – | fair affinity | –
CC(N)Cc1c[nH]c2ccc(O)cc12 (stereo not drawn) [α-Methyl-5-HT] | 184 ± 35 nM | – | –
